Measured values published in US10479792B2, “Compounds” (GlaxoSmithKline Intellectual Property Development Limited, priority 2015, dated 2019).

Columns and labels:
RnH9c2 cells = experiment: Trypanosoma cruzi intracellular assay (Assay 2), host cell cytotoxicity; format: cell-based; settings: rat, H9C2 cardiomyocytes infected with Trypanosoma cruzi, 72 h incubation, read-out: cytotoxicity against RnH9c2 cells, pEC50 (converted)
Method: (§1) Compounds were dispensed into black 384-well assay plates (Greiner) by acoustic dispensing (LabCyte ECHO). For potency determinations, eleven-point, one in three dilution curves were generated, with a top concentration of 50 μM. H9C2 rat cardiomyocytes cells were dispensed in T225 tissue culture flasks and after 4 hours they were infected during 18 hours with T. cruzi trypomastigotes in the same T225 tissue culture flasks at a multiplicity of infection of 1. Next, any remaining free trypomastigotes were washed away with PBS and the infected H9C2 cells were harvested by trypsinisation. The infected H9C2 cells were then plated into 384-well plates containing the compounds to be tested, at 2500 cells per well in DMEM media with 2% FBS, 1% Penicillin/Streptomicin, 2 mM L-Glutamine, 1 mM Na Pyruvate and 25 mM HEPES. After 72 h incubation at 37° C. in presence of 5% CO2, the plates were fixed and stained with 4% formaldehyde and 2 μM Draq5 for 3 hours at room temperature. The plates were imaged on a Perkin Elmer Opera high-content imaging system using a 20× air objective. Images were analyzed using the Acapella building blocks system (Perkin Elmer). The image analysis algorithm first identified the H9C2 nuclei followed by demarcation of the cytoplasm and identification of intracellular amastigotes. This algorithm reported mean number of parasites per H9C2 cell, the percentage of infected H9C2 cells and the total number of H9C2 cells.

Leishmania donovani [1] = experiment: Leishmania donovani intracellular assay (Assay 5); format: cell-based; settings: THP-1, 96 h, eGFP amastigotes in THP-1 cells, 96 h incubation, read-out: pEC50 value against Leishmania donovani (converted)
Method: (§2) Assay 5. Leishmania donovani Intracellular Assay
(§3) Compounds were dispensed into black 384-well assay plates (Greiner) by acoustic dispensing (LabCyte ECHO). For potency determinations, eleven-point, one in three dilution curves were generated, with a top concentration of 50 μM. THP-1 human monocytes cells were dispensed in T225 tissue culture flasks and differentiated using 30 nM of PMA, after 24 hours they were infected overnight using Leishmania donovani expressing Green Fluorescent Protein (eGFP) amastigotes in the same T225 tissue culture flasks at a multiplicity of infection of 10. Next, any remaining free amastigotes were washed away with PBS and the infected THP-1 cells were harvested by trypsinisation. The infected cells were then plated into 384-well plates containing the compounds to be tested, at 3000 cells per well in RPMI media with 2% FBS and 25 mM Sodium bicarbonate. After 96 h incubation at 37° C. in presence of 5% CO2, the plates were fixed with 4% formaldehyde for 30 minutes, washed with PBS and stained with 0.1 mg/mL of DAPI for 30 minutes and washed again with PBS. The plates were imaged on a Perkin Elmer Opera high-content imaging system using a 20× air objective with two expositions, one for DAPI stain and other for eGFP. Images were analysed using the Acapella building blocks system (Perkin Elmer). The image analysis algorithm first identified the THP-1 nuclei followed by demarcation of the cytoplasm and identification of intracellular amastigotes. This algorithm reported mean number of parasites per THP-1 cell, the percentage of infected THP-1 cells and the total number of THP-1 cells.

Leishmania donovani [2] = experiment: Intramacrophage Leishmania donovani assay (Assay 1), average number of amastigotes per cell (potency readout); format: cell-based; settings: THP-1, 96 h, amastigotes in PMA-differentiated THP-1 macrophages, 96 h incubation, read-out: pEC50 value against Leishmania donovani (converted)
Method: Assay 1. Intramacrophage Leishmania donovani Assay
The intramacrophage Leishmania assay was performed using a modified version of the method described in De Rycker et al. (Antimicrob Agents Chemother. 2013 July; 57(7):2913-22. Comparison of a high-throughput high-content intracellular Leishmania donovani assay with an axenic amastigote assay. De Rycker M, Hallyburton I, Thomas J, Campbell L, Wyllie S, Joshi D, Cameron S, Gilbert I H, Wyatt P G, Frearson J A, Fairlamb A H, Gray D W.). Procedure: 350 nl of compound was pre-dispensed into 384 well sterile intermediary plates. For single point screening, amphotericin B was added to all wells of column 24 as a positive control (final concentration 2 μM) and DMSO to column 23. For potency determinations, ten-point, one in three dilution curves were created with the highest concentration being 50 μM and on each plate a control curve of amphotericin B was included. Controls were as follows: columns 11 and 12: DMSO, columns 23 and 24: amphotericin B (final concentration 2 μM). To the intermediary plates, 35 μl of THP-1 media was added and plates were shaken for >5 min to ensure complete mixing. THP-1 cells (8,000 per well, 50 μl) were plated into black clear-bottom 384 well plates (Corning) in presence of 20 nM PMA. After 20 min at RT, the plates were incubated at 37° C. under 5% CO2 in a humidified incubator for 75 h. The cells were then washed with […] sterile phosphate buffered saline (PBS) supplemented with 1 mM CaCl2, 0.5 mM MgCl2, 0.1% (w/v) bovine serum albumin (PBS-A) and amastigotes were added to all wells at a multiplicity of infection of 5 (40,000 amastigotes per well). After 40 min at RT, plates were returned to the incubator. Amastigotes were incubated in the presence of THP-1 macrophages for 16 h. Any remaining extracellular amastigotes were subsequently removed with an overflow wash of 1 mL PBS-A per well (wash buffer is being aspirated from the top of the well as it is being dispensed) followed by addition of 25 μl of the compound pre-dilutions using a Fluidx Ipette-pro pipetting station. The final dilution of each compound was 200-fold. Plates were incubated for 96 h and then washed (250 μl PBS-A) and fixed (4% (v/v) formaldehyde-PBS, 30 min, RT). After fixation, the wells were washed with 250 μl PBS, stained (10 μg/mL DAPI, 0.4 μg mL-1 HCS Cellmask Deep Red in PBS+0.1% (v/v) Triton X-100, 30 min, RT) and washed with 250 μl PBS. Finally, PBS+0.05% (v/v) thimerosal was added to the wells, the plates were sealed and imaged on a high-content microscope (GE IN Cell 2000) using a 10× objective. Image analysis was carried out with GE IN Cell Analyzer 1000 Workstation using the “Multi Target Analysis” module. Settings for segmentation were as follows: nuclei: minimum area: 142.384 μm2, sensitivity: 81, method: top-hat; cells: characteristic area: 2500 μm2, sensitivity: 60, method: multiscale top-hat; organelles (amastigotes): granule size 1-3, 3 scales, sensitivity: 90, detection in entire cell. For each well, i) THP-1 cell count (cytotoxicity readout) and ii) average number of amastigotes per cell (potency readout) were calculated, both in terms of pEC50 values.

Trypanosoma cruzi = Trypanosoma cruzi intracellular assay (Assay 2); format: cell-based; settings: infected H9C2 rat cardiomyocytes, 72 h incubation, read-out: pEC50 value against Trypanosoma cruzi (converted)
Method: as §1

THP-1 cells = experiment: Leishmania donovani intracellular assay (Assay 5), THP-1 cytotoxicity; format: cell-based; settings: human, 96 h incubation, read-out: cytotoxicity against THP-1 cells, pEC50 (converted)
Method: as §2, §3

[3] = Solubility assay, ChemiLuminescent Nitrogen Detection (CLND) (Assay 4); format: physicochemical; settings: phosphate buffered saline (PBS) pH 7.4, aqueous buffer, kinetic from dmso stock, PBS pH 7.4, from 10 mM DMSO stock, 1 h at room temperature
Method: Assay 4. Solubility Assay—ChemiLuminescent Nitrogen Detection (CLND) I. Compounds A 10 mM DMSO stock solution of the compound was prepared. Solvents and Buffers Organic solvents of HPLC grade were used. Ultra pure water (Milli-Q grade) was used. Buffers were prepared with ultra pure water and filtered using 0.45μ cameo filters. Aqueous Buffer Solution: Phosphate Buffer Saline (PBS) @ pH 7.4 was prepared from Sigma dry powder packs, P-3813. Each one was diluted to 1 liter with deionised water. The pH was checked before the solution was used II. Procedures. • a) DMSO concentration was measured. DMSO blanks and ondansetron and caffeine standards were added to the plate (column 12, A, B, C, & D for the blanks and E, F, G, & H for the standards). Plates were covered with foil. When the UV and CLND detectors baselines appeared to be stable, the CLND was zeroed. • b) Once DMSO concentration measurements were complete, a filtration plate was prepared from each parent plate by diluting 5 μl of the 10 mM DMSO stock solution to […] with pH7.4 PBS. • c) After the plates were prepared, they were covered with a plate lid and left to incubate for 1 h at room temperature. • d) Sample was filtered using MILLIPORE MultiScreen Solubility (MSSLBPC10) Filtration Plates, to NUNC V well plates. […]

Row | Structure (SMILES) | EC50 at 72 h (RnH9c2 cells) [µM] | EC50 (Leishmania donovani [1]) [µM] | EC50 (Leishmania donovani [2]) [µM] | EC50 (Trypanosoma cruzi) [µM] | EC50 at 96 h (THP-1 cells) [µM] | solubility at 1 h [3] [µM]
1 | O=C(Nc1ccc(F)c(-c2ccn3c(C4CCOCC4)cnc3n2)c1)N1CCCC1 [Example 19, N-(4-fluoro-3-(3-(tetrahydro-2H-pyran-4-yl)imidazo[1,2-a]pyrimidin-7-yl)phenyl)pyrrolidine-1-carboxamide] | 39.8 | 0.126 to 10 | 0.251 to 10 | – | – | –
2 | O=C(Nc1ccc(F)c(-c2ccn3c(N4CCOCC4)cnc3n2)c1)N1CC[C@H](F)C1 [Example 23a] | – | > 50.1 | > 50.1 | 31.6 | – | –
3 | O=C(Nc1ccc(F)c(-c2ccn3c(-c4ccccc4)cnc3n2)c1)N1CCCC1 [Example 3, N-(4-fluoro-3-(3-phenylimidazo[1,2-a]pyrimidin-7-yl)phenyl)pyrrolidine-1-carboxamide] | – | 0.126 to 10 | 0.251 to 10 | – | 12.6 to 50.1 | –
4 | C[C@H]1CCCN1C(=O)Nc1ccc(F)c(-c2ccn3c(N4CCOCC4)cnc3n2)c1 [Example 33a] | – | 12.6 to 39.8 | > 50.1 | 12.6 | – | –
5 | COc1cccc(-c2cnc3nc(-c4cc(NC(=O)N5CCCC5)ccc4F)ccn23)n1.Cl [Example 28, N-(4-fluoro-3-(3-(6-methoxypyridin-2-yl)imidazo[1,2-a]pyrimidin-7-yl)phenyl)pyrrolidine-1-carboxamide] | 7.94 | 0.126 to 10 | – | – | 12.6 to 50.1 | < 1
6 | O=C(Nc1ccc(F)c(-c2ccn3c(-c4ccccn4)cnc3n2)c1)N1CCCC1 [Example 26, N-(4-fluoro-3-(3-(pyridin-2-yl)imidazo[1,2-a]pyrimidin-7-yl)phenyl)pyrrolidine-1-carboxamide] | 39.8 | 0.126 to 10 | 0.251 to 10 | – | 12.6 to 50.1 | –
7 | Cc1cccc(-c2cnc3nc(-c4cc(NC(=O)N5CCCC5)ccc4F)ccn23)n1 [Example 37, N-(4-fluoro-3-(3-(6-methylpyridin-2-yl)imidazo[1,2-a]pyrimidin-7-yl)phenyl)pyrrolidine-1-carboxamide] | 25.1 | 0.126 to 10 | – | – | 12.6 to 50.1 | –
8 | O=C(Nc1cccc(-c2ccn3c(-c4ccccc4)cnc3n2)c1)N1CCCC1 [Example 2, N-(3-(3-phenylimidazo[1,2-a]pyrimidin-7-yl)phenyl)pyrrolidine-1-carboxamide] | – | 0.126 to 10 | 0.251 to 10 | – | 12.6 to 50.1 | –
9 | CC(C)Cc1cnc2nc(-c3cc(NC(=O)N4CCCC4)ccc3F)ccn12 [Example 17, N-(4-fluoro-3-(3-isobutylimidazo[1,2-a]pyrimidin-7-yl)phenyl)pyrrolidine-1-carboxamide] | 5.01 | 0.126 to 10 | 0.251 to 10 | – | – | –
10 | O=C(Nc1ccc(F)c(-c2ccn3c(N4CCCCC4)cnc3n2)c1)N1CCCC1 [Example 5, N-(4-fluoro-3-(3-(piperidin-1-yl)imidazo[1,2-a]pyrimidin-7-yl)phenyl)pyrrolidine-1-carboxamide] | – | 0.126 to 10 | 0.251 to 10 | – | 12.6 to 50.1 | –
11 | O=C(Nc1ccc(F)c(-c2cnn3c(-c4ccccc4)cnc3n2)c1)N1CCCC1 [Example 7, N-(4-fluoro-3-(7-phenylimidazo[1,2-b][1,2,4]triazin-3-yl)phenyl)pyrrolidine-1-carboxamide] | 20 | – | 0.251 to 10 | – | – | –
